These results are taken from US5206415A, “Tricyclic steroid analogs” (priority 1991, dated 1993).

Structures can show the parent of a compound that is named as a salt. Where two headings read alike, the source gives them in different places.

For test [1], the system named is GABA receptor channel complex. The conditions noted are these: cited from earlier work.
For test [2] the following is noted: in vivo; cited from earlier work.
Test [3] relates to GABA currents. The conditions noted are these: various CNS neurons, cited from earlier work.
Test [4] deals with picrotoxin site. The settings on record: cited from earlier work.
Test [5] has as its system GABAA receptors. The settings on record: cited from earlier work.
The conditions of test [6]: two different animal models of anxiety; cited from earlier work.
The conditions of test [7]: rats; cited from earlier work.
Test [8] has as its system GABA-mediated neuronal inhibition. The settings on record: cited from earlier work.
For test [9] the following is noted: cited from earlier work.
For test [10], the system named is rat synaptoneurosomes. The conditions noted are these: cited from earlier work.
For test [11], the system named is GABA-induced chloride currents. The conditions noted are these: electrophysiological experiments; cited from earlier work.
Test [12] has as its system benzodiazepine receptors. The settings on record: several studies; cited from earlier work.
Test [13] relates to GABAA channels. The conditions noted are these: single channel; cited from earlier work.
Test [14] concerns recombinant human GABAA receptors. The settings on record: single channel recordings; cited from earlier work.
Test [15] concerns GABA receptor/chloride ionophore complex. Put plainly: Potentiation of GABA currents by tricyclic analogs (patch clamp, cultured hippocampal neurons). Type of test: cell-based, albino rat. The conditions noted are these: 1 μM GABA, mean ± SEM (N). On the procedure: (§1) Under halothane anesthesia, 1 day old albino rat pups are sacrificed by rapid decapitation and the hippocampi are dissected and dissociated with papain (1 mg/ml in oxygenated L-15 media for 30 min at 35° C.) and mechanical trituration (18). Cells are plated on collagen coated-culture dishes at a density of 300,000 cells/ml. The growth media consists of Eagles Minimal Essential Media (MEM) supplemented with 5% fetal calf serum, 5% horse serum, 17 mM glucose, 0.4 mM glutamine, 50 U/ml penicillin and 50 μg/ml streptomycin. After three days in culture cells are treated with 10 μM cytosine arabinoside (ARA-C) to suppress glial growth. Cells are subsequently fed with fresh media once per week.
(§2) For recording purposes the growth media is replaced with a solution containing (in mM): 140 NaCl, 5 KCl, 2 CaCl2, 1 MgCl2, 10 glucose, 10 HEPES, 0.001 tetrodotoxin, pH=7.3. Neurons are studied using patch clamp recording techniques (12) with pipettes containing (in mM): 145 CsCl, 5 BAPTA, 5 NaCl, 0.5 CaCl2, 2 MgATP, 10 HEPES, pH=7.3. This CsCl intracellular solution sets the Cl^-1 equilibrium potential (Ecl) at 0 mV (i.e. symmetric transmembrane concentrations of Cl^-). This allows reliable recording of Cl^-1 currents without concern for shifts in transmembrane Cl^-1 concentration which can alter GABA responses during longer agonist exposures (1). […]
In general terms: In patch-clamp work, channel activity is measured electrically.

Test [16] shares this test system. Put plainly: Direct Cl^- current activation (patch clamp, cultured hippocampal neurons). The class given is cell-based, albino rat. The settings on record: numeric bound. On the procedure: as §1, §2
Test [17] concerns GABAA receptors. The settings on record: cultured hippocampal neurons; cited from earlier work.
For test [18], the system named is GABA-mediated inhibitory synaptic responses. The settings on record: olfactory cortical slices; cited from earlier work.
Test [19] concerns GABA-gated channels. The settings on record: fluctuation analysis; cited from earlier work.

With `C[C@]12CCC(=O)C=C1CC[C@@H]1[C@@H]2[C@@H](O)C[C@@]2(C)[C@H]1CC[C@]2(O)C(=O)CO` [Cortisol], the GABA-induced chloride currents result in [1] (nanomolar concentrations) is reported as “inhibits these same currents”; in [1] (picomolar concentrations) it was “augments GABA-induced chloride currents”.
For the molecule `CC(=O)[C@H]1CC[C@H]2[C@@H]3CCC4=CC(=O)CC[C@]4(C)[C@H]3CC[C@]12C` [progesterone], the “usefulness for treating premenstrual syndrome” value in [2] is recorded as “often useful”.
With `C[C@]12CC[C@H](OS(=O)(=O)O)CC1=CC[C@@H]1[C@@H]2CC[C@]2(C)C(=O)CC[C@@H]12` [dehydroepiandrosterone sulfate (DHEAS), dehydroepiandrosterone sulfate], in test [3], the GABA currents result was “inhibit GABA currents”. The TBPS binding entry in test [4] was “not DHEAS”.
As to `CN1CCc2cc3c(cc2[C@H]1[C@@H]1OC(=O)c2c1ccc1c2OCO1)OCO3` [bicuculline], the “block of steroid gated currents” value in test [5] is on record as “blocked”.
As to `C[C@]12CC[C@@H](O)C[C@@H]1CC[C@@H]1[C@@H]2CC[C@]2(C)[C@@H](C(=O)CO)CC[C@@H]12` [THDOC, 5α-pregnane-3α, 21-diol-20-one], the “anxiolytic and sedative activity” value in test [6] is “both anxiolytic and sedative activity”. The “sleep induction and nonREM sleep” value in [7] was “induce sleep and increase nonREM sleep”. Also, the GABA-mediated neuronal inhibition entry in [8] was “augment GABA-mediated neuronal inhibition”.
Consider `CC(=O)[C@H]1CC[C@H]2[C@@H]3CC[C@@H]4C[C@H](O)CC[C@]4(C)[C@H]3CC[C@]12C` [3α-hydroxy-5β-pregnan-20-one], for which the “activity in vivo as steroid anesthetics” value in [9] is “active in vivo as steroid anesthetics”. Moreover, the “potentiation of muscimol-stimulated chloride uptake” value in [10] is on record as “potentiators of muscimol-stimulated chloride uptake”. In test [11], the “potentiation of GABA-induced chloride currents” value is recorded as “potentiators of GABA-induced chloride currents”.
Consider `CCOC(=O)c1ncn2c1CN(C)C(=O)c1cc(F)ccc1-2` [R015-1788 (flumazenil)], for which the “effect on steroid responses” value in test [12] is recorded as “failed to find an effect”.
With picrotoxin, the “opening frequency of the channels” value in [13] was “decreasing the opening frequency of the channels”.
As to `CCCC(C)C1(CC)C(=O)NC(=O)NC1=O` (stereo not shown) [pentobarbital], the “channel open times and burst lengths / opening frequency” value in test [14] is “prolongs channel open times and burst lengths”.
For `CC(=O)[C@H]1CC[C@H]2[C@@H]3CC[C@H]4C[C@H](O)CC[C@]4(C)[C@H]3CC[C@]12C` [Example 3α-OH-DHP, 3α-hydroxy-5α-pregnan-20-one], in test [15] (0.1 μM compound), the “Potentiation of GABA currents, 0.1 μM” value is on record as 110 ± 5% of control response to. Besides, in test [15] (1.0 μM compound), the “Potentiation of GABA currents, 1.0 μM” value is on record as 195 ±16% of control response to. Further, the “Concentration for Direct Cl^- Current Activation” value in [16] was more than 1 µM. For the same molecule, the “channel open times and burst lengths / opening frequency” value in [14] is “increases the frequency of channel opening without altering the open times”. Besides, the “activity in vivo as steroid anesthetics” value in [9] is recorded as “active in vivo as steroid anesthetics”. Also, in test [10], the “potentiation of muscimol-stimulated chloride uptake” value is reported as “potentiators of muscimol-stimulated chloride uptake”. Besides, in test [11], the “potentiation of GABA-induced chloride currents” value is “potentiators of GABA-induced chloride currents”.
For `CC(=O)C1CCC2C3CC=C4CC(OS(=O)(=O)O)CCC4(C)C3CCC12C` (stereo not shown) [pregnenolone sulfate], the results for the GABA currents entry in [3] and in [3] (listed as pregnenolone sulfate (PS)) were “inhibit GABA-induced chloride currents” and “inhibit GABA currents”, respectively. For the same molecule, the TBPS binding result in [4] is “inhibits TBPS binding at the picrotoxin site”. For the same molecule, the “opening frequency of the channels” value in test [13] is recorded as “decreasing the opening frequency of the channels”.
On to `CC(=O)[C@H]1CC[C@H]2[C@@H]3CC[C@H]4C[C@H](O)CC[C@]4(C)[C@H]3C(=O)C[C@]12C` [alphaxalone], for which, in test [17], the “peak IPSC amplitude or rise time” value was “without change in peak IPSC amplitude or rise time” and the “prolongation of IPSC decay” value is 5-8 fold. The “time course of GABA-mediated inhibitory synaptic responses” value in test [18] was “prolongs the time course of GABA-mediated inhibitory synaptic responses”. Further, in [19], the “burst length of GABA-gated channels” value is “significantly prolongs the burst length of GABA-gated channels” and the single channel conductance result is “without changing the single channel conductance”.
